# US20220169632A1, “METHODS AND MATERIALS FOR INCREASING OR MAINTAINING NICOTINAMIDE MONONUCLEOTIDE ADENYLYL TRANSFERASE-2 (NMNAT2) POLYPEPTIDE LEVELS” (University of Pittsburgh - Of the Commonwealth System of …, priority 2019, published 2022)
# How the values were obtained:
# [1] = test system: NMNAT2; assay: NMNAT2-Hibit nano-luciferase activity in transfected U87MG cells, 5 μM, 48 hours; type: cell-based; conditions: NMNAT2-Hibit luciferase plasmid, 48 hours (Table D)
# Description: Selected compounds were tested in vitro. Briefly, U87MG cells were transfected with NMNAT2-Hibit luciferase plasmid. Cells were treated with test compound at 5 μM for 48 hours. Cells were then collected and assayed for nano-luciferase activity.
# [2] = test system: NMNAT2; assay: NMNAT2-Hibit nano-luciferase activity in transfected U87MG cells, 25 μM, 24 hours; type: cell-based; conditions: NMNAT2-Hibit luc plasmid, 24 hours (Table C)
# Description: Selected compounds were tested in vitro. Briefly, U87MG cells were transfected with NMNAT2-Hibit luc plasmid. Cells were treated with a test compound at 25 μM for 24 hours. Cells were then collected and assayed for nano-luciferase activity.
SMILES,D: compound efficacy for NMNAT2 activation; increase in NMNAT2 luciferase activity [1],C: Compound efficacy for NMNAT2 activation; increase in NMNAT2 luciferase activity [2]
O=C(Cn1cc(C(=O)C(F)(F)F)c2ccccc21)NCc1ccccc1 [BC181201],+++ (“+++” >100% increase in NMNAT2 luciferase activity.),
O=C(Cn1cc(C(=O)C2CC2)c2ccccc21)NCc1ccco1 [BC181202],+ (“+” <20% increase in NMNAT2 luciferase activity.),
O=C(Cn1cc(C(=O)C2CC2)c2ccccc21)NCc1ccccc1 [BC181203],++ (“++” >20% and <100% increase in NMNAT2 luciferase activity.),
O=C(Cn1cc(C(=O)C2=CC=CC2)c2ccccc21)NCc1ccccc1 [BC181204],++ (“++” >20% and <100% increase in NMNAT2 luciferase activity.),
CC1CCN(C(=O)Cn2cc(C(=O)c3ccccc3)c3ccccc32)CC1 [BC181205],+ (“+” <20% increase in NMNAT2 luciferase activity.),
O=C(Cn1cc(C(=O)c2ccccc2)c2ccccc21)NCc1ccco1 [BC181206],++ (“++” >20% and <100% increase in NMNAT2 luciferase activity.),
O=C(Cn1cc(C(=O)c2ccccc2)c2ccccc21)NCC1=CC=CC1 [BC181207],++ (“++” >20% and <100% increase in NMNAT2 luciferase activity.),
Cc1cccc(NC(=O)Cn2cc(C(=O)c3ccccc3)c3ccccc32)c1 [BC181208],+ (“+” <20% increase in NMNAT2 luciferase activity.),
Cc1ccc(NC(=O)Cn2cc(C(=O)c3ccccc3)c3ccccc32)cc1 [BC181209],+ (“+” <20% increase in NMNAT2 luciferase activity.),
Cc1cccc(NC(=O)Cn2cc(C(=O)c3ccccc3)c3ccccc32)c1C [BC181210],++ (“++” >20% and <100% increase in NMNAT2 luciferase activity.),
Cc1ccc(C)c(NC(=O)Cn2cc(C(=O)c3ccccc3)c3ccccc32)c1 [BC181211],++ (“++” >20% and <100% increase in NMNAT2 luciferase activity.),
Cc1ccc(NC(=O)Cn2cc(C(=O)c3ccccc3)c3ccccc32)cc1C [BC181212],+ (“+” <20% increase in NMNAT2 luciferase activity.),
COc1ccc(NC(=O)Cn2cc(C(=O)c3ccccc3)c3ccccc32)cc1 [BC181213],+ (“+” <20% increase in NMNAT2 luciferase activity.),
COCCNC(=O)Cn1cc(C(=O)c2ccccc2)c2ccccc21 [BC181214],+ (“+” <20% increase in NMNAT2 luciferase activity.),
O=C(Cn1cc(C(=O)c2ccccc2)c2ccccc21)Nc1ccc(Br)cc1 [BC181215],+ (“+” <20% increase in NMNAT2 luciferase activity.),
O=C(Cn1cc(C(=O)c2ccccc2)c2ccccc21)NCc1ccc2c(c1)OCO2 [BC181216],+ (“+” <20% increase in NMNAT2 luciferase activity.),
CCN(CC)C(=O)Cn1cc(C(=O)c2ccccc2)c2ccccc21 [BC181217],+ (“+” <20% increase in NMNAT2 luciferase activity.),
CC1CCCCN1C(=O)Cn1cc(C(=O)c2ccccc2)c2ccccc21 (centres unmarked) [BC181218],+ (“+” <20% increase in NMNAT2 luciferase activity.),
CC1CCCC(C)N1C(=O)Cn1cc(C(=O)c2ccccc2)c2ccccc21 (centres unmarked) [BC181219],++ (“++” >20% and <100% increase in NMNAT2 luciferase activity.),
O=C(Cn1cc(C(=O)C2CCCCC2)c2ccccc21)NCc1ccco1 [BC181220],+++ (“+++” >100% increase in NMNAT2 luciferase activity.),
O=C(Cn1cc(C(=O)C2CCCCC2)c2ccccc21)NCc1ccccc1 [BC181221],+ (“+” <20% increase in NMNAT2 luciferase activity.),
O=C(Cn1cc(C(=O)C2CCCCC2)c2ccccc21)NCCc1ccccc1 [BC181222],++ (“++” >20% and <100% increase in NMNAT2 luciferase activity.),
O=C(Cn1cc(C(=O)c2ccco2)c2ccccc21)NCc1ccccc1 [BC181223],+ (“+” <20% increase in NMNAT2 luciferase activity.),
CC(NC(=O)Cn1cc(C(=O)c2ccccc2)c2ccccc21)c1ccccc1 (centres unmarked) [BC181224],+ (“+” <20% increase in NMNAT2 luciferase activity.),
CC(NC(=O)Cn1cc(C(=O)C2CCCCC2)c2ccccc21)c1ccccc1 (centres unmarked) [BC181225],+ (“+” <20% increase in NMNAT2 luciferase activity.),
CSc1ccc(CNC(=O)Cn2c(C)cc(C)c(C#N)c2=O)cc1 [Compound 181132],,+ (“+” <20% increase in NMNAT2 luciferase activity.)
Cc1cc(C)n(CC(=O)Nc2ccc(C(=O)NCc3ccco3)cc2)c(=O)c1C#N [Compound 181133],,+ (“+” <20% increase in NMNAT2 luciferase activity.)

SMILES,D: compound efficacy for NMNAT2 activation; increase in NMNAT2 luciferase activity [1],C: Compound efficacy for NMNAT2 activation; increase in NMNAT2 luciferase activity [2]
Cc1ccc(CNC(=O)c2ccc(NC(=O)Cn3c(C)cc(C)c(C#N)c3=O)cc2)o1 [Compound 181134],,+ (“+” <20% increase in NMNAT2 luciferase activity.)
Cc1cc(C)n(CC(=O)Nc2ccccc2C(=O)NCc2ccco2)c(=O)c1C#N [Compound 181135],,+ (“+” <20% increase in NMNAT2 luciferase activity.)
Cn1c(=O)c(=O)n(CC(=O)NCc2ccco2)c2ccccc21 [Compound 181136],,+ (“+” <20% increase in NMNAT2 luciferase activity.)
Cc1ccc(CNC(=O)Cn2c(=O)c(=O)n(C)c3ccccc32)o1 [Compound 181137],,+ (“+” <20% increase in NMNAT2 luciferase activity.)
CCn1c(=O)c(=O)n(CC(=O)NCc2ccco2)c2ccccc21 [Compound 181138],,+ (“+” <20% increase in NMNAT2 luciferase activity.)
CCn1c(=O)c(=O)n(CC(=O)NCc2ccc(C)o2)c2ccccc21 [Compound 181139],,+ (“+” <20% increase in NMNAT2 luciferase activity.)
Cc1cc2c(=O)n(CC(=O)NCc3ccco3)ccc2s1 [Compound 181140],,+ (“+” <20% increase in NMNAT2 luciferase activity.)
CCn1ccc2cc(CCC(=O)NCc3ccco3)ccc21 [Compound 181141],,++ (“++” >20% and <100% increase in NMNAT2 luciferase activity.)
Cc1ccc(C(CC(=O)NCc2ccco2)c2cn(C)c3ccccc23)cc1 (centres unmarked) [Compound 181142],,+ (“+” <20% increase in NMNAT2 luciferase activity.)
Cn1cc(C(CC(=O)NCc2ccco2)c2cccc(F)c2)c2ccccc21 (centres unmarked) [Compound 181143],,+ (“+” <20% increase in NMNAT2 luciferase activity.)
Cc1cc2ccccc2n1CC(=O)NCc1ccco1 [Compound 181144],,+ (“+” <20% increase in NMNAT2 luciferase activity.)
CC(=O)c1cn(CC(=O)NCc2ccco2)c2ccccc12 [Compound 181145],,+ (“+” <20% increase in NMNAT2 luciferase activity.)
COc1cccc2ccn(CC(=O)NCc3ccco3)c12 [Compound 181146],,+ (“+” <20% increase in NMNAT2 luciferase activity.)
O=C(Cn1ccc2ccccc21)NCc1ccco1 [Compound 181147],,+ (“+” <20% increase in NMNAT2 luciferase activity.)
O=C(Cn1ccc2ccccc21)NCc1ccc(F)cc1 [Compound 181148],,++ (“++” >20% and <100% increase in NMNAT2 luciferase activity.)
O=C(Cn1ccc2cc(Br)ccc21)NCc1ccco1 [Compound 181149],,++ (“++” >20% and <100% increase in NMNAT2 luciferase activity.)
COc1ccc(CNC(=O)Cn2ccc3ccc(F)cc32)cc1OC [Compound 181150],,+ (“+” <20% increase in NMNAT2 luciferase activity.)
COc1ccccc1CNC(=O)Cn1ccc2ccc(F)cc21 [Compound 181151],,+ (“+” <20% increase in NMNAT2 luciferase activity.)
O=C(Cn1ccc2ccc(F)cc21)NCc1ccco1 [Compound 181152],,+ (“+” <20% increase in NMNAT2 luciferase activity.)
O=C(Cn1ccc2ccc(Br)cc21)NCCCc1ccco1 [Compound 181153],,++ (“++” >20% and <100% increase in NMNAT2 luciferase activity.)
CC(CCc1ccco1)NC(=O)Cn1ccc2ccc(Br)cc21 (centres unmarked) [Compound 181154],,++ (“++” >20% and <100% increase in NMNAT2 luciferase activity.)
O=C(NCCn1ccc2c(Cl)cccc21)c1ccco1 [Compound 181155],,+ (“+” <20% increase in NMNAT2 luciferase activity.)
O=C(NCCn1ccc2ccc(Cl)cc21)c1ccco1 [Compound 181156],,+ (“+” <20% increase in NMNAT2 luciferase activity.)
COc1ccc2c(ccn2CCNC(=O)c2ccco2)c1 [Compound 181157],,+ (“+” <20% increase in NMNAT2 luciferase activity.)
O=C(NCCn1ccc2cc(Br)ccc21)c1ccco1 [Compound 181158],,+ (“+” <20% increase in NMNAT2 luciferase activity.)
Cc1cc2ncn(CC(=O)NCc3ccco3)c2cc1C [Compound 181159],,+ (“+” <20% increase in NMNAT2 luciferase activity.)
